Data published in PubChem BioAssay (NCI).
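1) Cells in 96-well plates. 2) Compound, 48 h, 5 concentrations. 3) Linear interpolation between surrounding doses. 4) Unreached endpoint = highest concentration. GI50 marks 50% less growth. At the TGI there is no net growth.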

What was measured:
Test in all cases: growth of human tumour cells (NCI), 48 h
786-0 renal = system: 786-0 renal
SF-539 CNS = system: SF-539 CNS
BT-549 breast = system: BT-549 breast
MDA-MB-231 breast = system: MDA-MB-231 breast
HOP-62 NSCLC = system: HOP-62 NSCLC
HCC-2998 colon = system: HCC-2998 colon
NCI/ADR-RES ovarian = system: NCI/ADR-RES ovarian
UACC-257 melanoma = system: UACC-257 melanoma
OVCAR-4 ovarian = system: OVCAR-4 ovarian
SNB-19 CNS = system: SNB-19 CNS
SNB-75 CNS = system: SNB-75 CNS
NCI-H460 lung = system: NCI-H460 lung
DU-145 prostate = system: DU-145 prostate
SK-MEL-2 melanoma = system: SK-MEL-2 melanoma
SK-MEL-5 melanoma = system: SK-MEL-5 melanoma
NCI-H522 lung = system: NCI-H522 lung
OVCAR-3 ovarian = system: OVCAR-3 ovarian
CCRF-CEM leukemia = system: CCRF-CEM leukemia
SF-268 CNS = system: SF-268 CNS
MDA-MB-435 = system: MDA-MB-435
ACHN renal = system: ACHN renal
SK-MEL-28 melanoma = system: SK-MEL-28 melanoma
HOP-92 NSCLC = system: HOP-92 NSCLC
RPMI-8226 leukemia = system: RPMI-8226 leukemia
HS 578T breast = system: HS 578T breast
A549 NSCLC = system: A549 NSCLC
IGROV1 ovarian = system: IGROV1 ovarian
CAKI-1 renal = system: CAKI-1 renal
SF-295 CNS = system: SF-295 CNS
KM12 colon = system: KM12 colon
M14 melanoma = system: M14 melanoma
PC-3 prostate = system: PC-3 prostate
HCT-116 colon = system: HCT-116 colon
OVCAR-5 ovarian = system: OVCAR-5 ovarian
NCI-H23 lung = system: NCI-H23 lung
SN12C renal = system: SN12C renal
K-562 leukemia = system: K-562 leukemia
HCT-15 colon = system: HCT-15 colon
TK-10 renal = system: TK-10 renal
UO-31 renal = system: UO-31 renal
SK-OV-3 ovarian = system: SK-OV-3 ovarian
EKVX NSCLC = system: EKVX NSCLC
HL-60(TB) leukemia = system: HL-60(TB) leukemia
NCI-H226 lung = system: NCI-H226 lung
RXF 393 renal = system: RXF 393 renal
MALME-3M melanoma = system: MALME-3M melanoma
SW-620 colon = system: SW-620 colon
A498 renal = system: A498 renal
LOX IMVI melanoma = system: LOX IMVI melanoma
HT29 colon = system: HT29 colon
MCF7 breast = system: MCF7 breast
OVCAR-8 ovarian = system: OVCAR-8 ovarian
UACC-62 melanoma = system: UACC-62 melanoma
T-47D breast = system: T-47D breast
MOLT-4 leukemia = system: MOLT-4 leukemia
COLO 205 colon = system: COLO 205 colon
U251 CNS = system: U251 CNS
SR leukemia = system: SR leukemia

CCn1c(-c2nonc2N)nc2c(N3CCCC3)nccc21
GI50 (786-0 renal): > 18.6 µM
TGI (786-0 renal): > 25 µM
GI50 (SF-539 CNS): 10.8 µM
TGI (SF-539 CNS): > 25 µM
GI50 (BT-549 breast): > 21.8 µM
TGI (BT-549 breast): > 25 µM
GI50 (MDA-MB-231 breast): > 18.8 µM
TGI (MDA-MB-231 breast): > 25 µM
GI50 (HOP-62 NSCLC): 12.3 µM
TGI (HOP-62 NSCLC): > 25 µM
GI50 (HCC-2998 colon): > 25 µM
TGI (HCC-2998 colon): > 25 µM
GI50 (NCI/ADR-RES ovarian): 10.7 µM
TGI (NCI/ADR-RES ovarian): > 25 µM
GI50 (UACC-257 melanoma): > 22.4 µM
TGI (UACC-257 melanoma): > 25 µM
GI50 (OVCAR-4 ovarian): 10.3 µM
TGI (OVCAR-4 ovarian): > 25 µM
GI50 (SNB-19 CNS): 19.4 µM
TGI (SNB-19 CNS): > 25 µM
GI50 (SNB-75 CNS): 10.3 µM
TGI (SNB-75 CNS): > 25 µM
GI50 (NCI-H460 lung): 8.95 µM
TGI (NCI-H460 lung): > 25 µM
GI50 (DU-145 prostate): 14 µM
TGI (DU-145 prostate): > 25 µM
GI50 (SK-MEL-2 melanoma): > 25 µM
TGI (SK-MEL-2 melanoma): > 25 µM
GI50 (SK-MEL-5 melanoma): 19 µM
TGI (SK-MEL-5 melanoma): > 25 µM
GI50 (NCI-H522 lung): 10.9 µM
TGI (NCI-H522 lung): > 25 µM
GI50 (OVCAR-3 ovarian): 14.7 µM
TGI (OVCAR-3 ovarian): > 25 µM
GI50 (CCRF-CEM leukemia): 18.4 µM
TGI (CCRF-CEM leukemia): > 25 µM
GI50 (SF-268 CNS): 13.3 µM
TGI (SF-268 CNS): > 25 µM
GI50 (MDA-MB-435): 12.2 µM
TGI (MDA-MB-435): > 25 µM
GI50 (ACHN renal): 9.73 µM
TGI (ACHN renal): > 25 µM
GI50 (SK-MEL-28 melanoma): > 25 µM
TGI (SK-MEL-28 melanoma): > 25 µM
GI50 (HOP-92 NSCLC): 3.88 µM
TGI (HOP-92 NSCLC): 22.9 µM
GI50 (RPMI-8226 leukemia): 16.5 µM
TGI (RPMI-8226 leukemia): > 25 µM
GI50 (HS 578T breast): > 19.4 µM
TGI (HS 578T breast): > 25 µM
GI50 (A549 NSCLC): 13.2 µM
TGI (A549 NSCLC): > 25 µM
GI50 (IGROV1 ovarian): 12 µM
TGI (IGROV1 ovarian): > 25 µM
GI50 (CAKI-1 renal): 13.4 µM
TGI (CAKI-1 renal): > 25 µM
GI50 (SF-295 CNS): 9.27 µM
TGI (SF-295 CNS): > 25 µM
GI50 (KM12 colon): 15.7 µM
TGI (KM12 colon): > 25 µM
GI50 (M14 melanoma): 24.5 µM
TGI (M14 melanoma): > 25 µM
GI50 (PC-3 prostate): 14.4 µM
TGI (PC-3 prostate): > 25 µM
GI50 (HCT-116 colon): 8.47 µM
TGI (HCT-116 colon): > 25 µM
GI50 (OVCAR-5 ovarian): 12.5 µM
TGI (OVCAR-5 ovarian): > 25 µM
GI50 (NCI-H23 lung): 14.9 µM
TGI (NCI-H23 lung): > 25 µM
GI50 (SN12C renal): 15 µM
TGI (SN12C renal): > 25 µM
GI50 (K-562 leukemia): 10.3 µM
TGI (K-562 leukemia): > 25 µM
GI50 (HCT-15 colon): 11.2 µM
TGI (HCT-15 colon): > 25 µM
GI50 (TK-10 renal): 9.31 µM
TGI (TK-10 renal): > 25 µM
GI50 (UO-31 renal): 7.48 µM
TGI (UO-31 renal): > 25 µM
GI50 (SK-OV-3 ovarian): > 24 µM
TGI (SK-OV-3 ovarian): > 25 µM
GI50 (EKVX NSCLC): > 25 µM
TGI (EKVX NSCLC): > 25 µM
GI50 (HL-60(TB) leukemia): 24.9 µM
TGI (HL-60(TB) leukemia): > 25 µM
GI50 (NCI-H226 lung): 10 µM
TGI (NCI-H226 lung): > 25 µM
GI50 (RXF 393 renal): 9.63 µM
TGI (RXF 393 renal): > 25 µM
GI50 (MALME-3M melanoma): > 25 µM
TGI (MALME-3M melanoma): > 25 µM
GI50 (SW-620 colon): 8.07 µM
TGI (SW-620 colon): > 25 µM
GI50 (A498 renal): 8.39 µM
TGI (A498 renal): > 25 µM
GI50 (LOX IMVI melanoma): 8.91 µM
TGI (LOX IMVI melanoma): > 25 µM
GI50 (HT29 colon): 7.97 µM
TGI (HT29 colon): > 25 µM
GI50 (MCF7 breast): 5.27 µM
TGI (MCF7 breast): > 25 µM
GI50 (OVCAR-8 ovarian): 9.88 µM
TGI (OVCAR-8 ovarian): > 25 µM
GI50 (UACC-62 melanoma): 16.2 µM
TGI (UACC-62 melanoma): > 25 µM
GI50 (T-47D breast): 20.4 µM
TGI (T-47D breast): > 25 µM
GI50 (MOLT-4 leukemia): 10.5 µM
TGI (MOLT-4 leukemia): > 25 µM
GI50 (COLO 205 colon): 11 µM
TGI (COLO 205 colon): > 25 µM
GI50 (U251 CNS): 9.43 µM
TGI (U251 CNS): > 25 µM

CCOC(=O)C1=C(C)NC(c2ccco2)=C(C#N)C1c1cccc([N+](=O)[O-])c1 (stereo not drawn)
GI50 (SR leukemia): 0.0416 µM
TGI (SR leukemia): 17.5 µM
GI50 (786-0 renal): 0.0104 µM
TGI (786-0 renal): 13.5 µM
TGI (SF-539 CNS): 0.0128 µM
GI50 (BT-549 breast): 0.153 µM
TGI (BT-549 breast): 18 µM
GI50 (MDA-MB-231 breast): 0.0443 µM
TGI (MDA-MB-231 breast): 4.53 µM
GI50 (HOP-62 NSCLC): 0.0174 µM
TGI (HOP-62 NSCLC): 17.2 µM
GI50 (HCC-2998 colon): 0.0558 µM
TGI (HCC-2998 colon): 0.159 µM
TGI (NCI/ADR-RES ovarian): 0.356 µM
GI50 (UACC-257 melanoma): 0.0882 µM
TGI (UACC-257 melanoma): 26.2 µM
GI50 (OVCAR-4 ovarian): 4.53 µM
TGI (OVCAR-4 ovarian): 74.8 µM
GI50 (SNB-19 CNS): 0.0253 µM
GI50 (NCI-H460 lung): 0.0633 µM
TGI (NCI-H460 lung): 0.432 µM
GI50 (DU-145 prostate): 0.0316 µM
TGI (DU-145 prostate): 4.02 µM
GI50 (SK-MEL-2 melanoma): 0.0115 µM
TGI (SK-MEL-2 melanoma): 24.3 µM
TGI (SK-MEL-5 melanoma): 0.311 µM
TGI (NCI-H522 lung): 0.0371 µM
GI50 (OVCAR-3 ovarian): 0.0147 µM
TGI (OVCAR-3 ovarian): 0.0373 µM
GI50 (CCRF-CEM leukemia): 0.0186 µM
TGI (CCRF-CEM leukemia): 32.4 µM
GI50 (SF-268 CNS): 0.0783 µM
TGI (SF-268 CNS): 41.4 µM
TGI (ACHN renal): 45.7 µM
GI50 (SK-MEL-28 melanoma): 0.0105 µM
TGI (SK-MEL-28 melanoma): 22.5 µM
GI50 (RPMI-8226 leukemia): 0.0658 µM
TGI (HS 578T breast): 0.0885 µM
GI50 (A549 NSCLC): 0.0293 µM
GI50 (IGROV1 ovarian): 0.0157 µM
TGI (IGROV1 ovarian): 3.28 µM
GI50 (CAKI-1 renal): 0.0223 µM
TGI (CAKI-1 renal): 58.4 µM
GI50 (KM12 colon): 0.035 µM
TGI (KM12 colon): 16 µM
GI50 (M14 melanoma): 0.0132 µM
TGI (M14 melanoma): 3.28 µM
TGI (PC-3 prostate): 0.0554 µM
TGI (HCT-116 colon): 4.17 µM
GI50 (OVCAR-5 ovarian): 0.0331 µM
TGI (OVCAR-5 ovarian): 99.5 µM
GI50 (NCI-H23 lung): 0.0251 µM
TGI (NCI-H23 lung): 0.0947 µM
GI50 (SN12C renal): 0.0465 µM
TGI (SN12C renal): 19.7 µM
GI50 (K-562 leukemia): 0.0194 µM
GI50 (TK-10 renal): 3.06 µM
TGI (TK-10 renal): 49.4 µM
GI50 (UO-31 renal): 0.14 µM
TGI (UO-31 renal): 27.9 µM
GI50 (SK-OV-3 ovarian): 0.738 µM
TGI (SK-OV-3 ovarian): 70.9 µM
GI50 (EKVX NSCLC): 0.0263 µM
TGI (EKVX NSCLC): 88.6 µM
GI50 (NCI-H226 lung): 0.0137 µM
TGI (NCI-H226 lung): 3.43 µM
TGI (MALME-3M melanoma): 23.6 µM
GI50 (SW-620 colon): 0.0101 µM
TGI (SW-620 colon): 1.73 µM
GI50 (LOX IMVI melanoma): 0.0587 µM
TGI (LOX IMVI melanoma): 11.9 µM
GI50 (HT29 colon): 0.01 µM
TGI (HT29 colon): 0.562 µM
GI50 (MCF7 breast): 0.0339 µM
TGI (MCF7 breast): 20.8 µM
GI50 (OVCAR-8 ovarian): 0.0149 µM
TGI (OVCAR-8 ovarian): 13.9 µM
TGI (UACC-62 melanoma): 2.27 µM
GI50 (T-47D breast): 20.9 µM
GI50 (MOLT-4 leukemia): 0.0445 µM
GI50 (COLO 205 colon): 0.0149 µM
TGI (COLO 205 colon): 0.039 µM
GI50 (U251 CNS): 0.0134 µM
TGI (U251 CNS): 0.059 µM
